# From ChEMBL document CHEMBL1139661, “Arylaminoethyl amides as noncovalent inhibitors of cathepsin S. Part 2: Optimization of P1 and N-aryl” (Bioorg Med Chem Lett, 2006)
# Assays:
# Type in all cases: ADME, organism-based
# [1] = AUC in Wistar rat at 10 mg/kg, po; set-up: dose 10 mg/kg, route oral; details: plasma
# [2] = Oral bioavailability in Wistar rat at 10 mg/kg, po; details: in vivo
# [3] = Cmax in Wistar rat at 10 mg/kg, po; set-up: dose 10 mg/kg, route oral; details: in vivo
# [4] = system: Rattus norvegicus; assay: (§1) Half life in Wistar rat at 10 mg/kg; set-up: dose 10 mg/kg; details: in vivo
# [5] = as §1; set-up: dose 10 mg/kg; details: Wistar, in vivo
AUC [1] [ng·h/mL],bioavailability [2] [%],Cmax [3] [nM],T1/2 [4],half-life [5] [min],Structure (SMILES)
308,8,293,Not Active,–,CCOC(=O)C[C@@H](CN1CCc2cc(F)ccc21)NC(=O)[C@H](CCC1CCCCC1)NC(=O)c1cccc(OC)c1
100,2,45,–,33.6,COc1cccc(C(=O)N[C@@H](CC(C)(C)C)C(=O)N[C@@H](CC(=O)O)CN2CCc3cc(F)ccc32)c1
